Results published in patent US20060199870A1, “Method for producing aqueous ortho-phthalaldehyde solutions” (DSM Fine Chemicals Austria Nfg GmbH & Co KG, priority 2005, published 2006).

Assay: Solubility / attainable concentration of OPA in aqueous solution
Assay type: physicochemical
Source text: According to the invention, sufficient acetal is introduced into water and dissolved, so that after acidifying, a 0.025 to 9% strength by weight aqueous OPA solution is obtained. Preference is given to 0.05 to 5% strength by weight solutions, particularly preferably 0.5 to 2% strength by weight solutions.
It is advantageous in the inventive method that, compared with the use of OPA itself, more highly concentrated solutions (9% compared with 5%) can be produced, since the alcohol eliminated by the acidification favors the dissolution of the OPA formed.
In addition, if desired, the alcohol being eliminated can be removed from the solution by distilling it off, as a result of which, however, the solubility is reduced again to 5%.

O=Cc1ccccc1C=O [OPA, ortho-phthalaldehyde]
solubility (aqueous solution after the eliminated alcohol is distilled off): 5% | attainable concentration of aqueous OPA solution (solution produced from OPA acetal, alcohol eliminated by the acidification remains in solution): 9% | attainable concentration of aqueous OPA solution (use of OPA itself dissolved in water): 5%
